In experiment [1] the target is T1, Arachidonate 5-lipoxygenase-activating protein (Homo sapiens) (UniProt P20292).
T1 sequence (whole entry): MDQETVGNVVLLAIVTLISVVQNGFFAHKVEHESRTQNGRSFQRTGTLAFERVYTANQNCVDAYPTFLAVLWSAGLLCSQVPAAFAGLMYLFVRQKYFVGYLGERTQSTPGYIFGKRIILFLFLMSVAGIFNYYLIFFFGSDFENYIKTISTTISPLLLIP
The experiment is described as follows: Inhibition of FLAP in A23187-stimulated human neutrophils assessed as remaining enzyme activity by measuring 5-LO product formation at 0.1 uM preincubated for 15 mins followed by A23187 and arachidonic acid addition and measured after 10 mins by UV based RP-HPLC analysis (reference value: 100%).

Experiment [2] addresses T1, Arachidonate 5-lipoxygenase-activating protein (Homo sapiens). The experiment is described as follows: Inhibition of FLAP in A23187-stimulated human neutrophils assessed as remaining enzyme activity by measuring 5-LO product formation at 1 uM preincubated for 15 mins followed by A23187 and arachidonic acid addition and measured after 10 mins by UV based RP-HPLC analysis (reference value: 100%).

Experiment [3] deals with T2, Arachidonate 5-lipoxygenase-activating protein (Homo sapiens, UniProt P20292).
T2 sequence (P20292 whole entry): T1 sequence (whole entry)
The experiment is described as follows: Inhibition of FLAP in A23187-stimulated human neutrophils assessed as reduction in 5-LO product formation preincubated for 15 mins followed by A23187 and arachidonic acid addition and measured after 10 mins by UV based RP-HPLC analysis.

For experiment [4], the target named is T3, Prostaglandin E synthase (Homo sapiens) (UniProt O14684).
T3 sequence (whole entry): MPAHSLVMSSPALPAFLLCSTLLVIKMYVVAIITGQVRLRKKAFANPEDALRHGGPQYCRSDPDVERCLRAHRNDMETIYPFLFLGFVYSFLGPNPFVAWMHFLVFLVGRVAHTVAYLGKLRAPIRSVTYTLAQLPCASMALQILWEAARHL
As to the kind of experiment: Inhibition of mPGES1 in IL-1beta-stimulated human A549 cell microsomal fractions assessed as reduction in PGE2 production at 3 uM preincubated for 15 mins followed by PGH2 substrate addition and measured after 1 min by RP-HPLC analysis relative to control.

Experiment [5] addresses T1, Arachidonate 5-lipoxygenase-activating protein (Homo sapiens). The experiment is described as follows: Inhibition of FLAP in A23187-stimulated human neutrophils assessed as remaining enzyme activity by measuring 5-LO product formation at 10 uM preincubated for 15 mins followed by A23187 and arachidonic acid addition and measured after 10 mins by UV based RP-HPLC analysis (reference value: 100%).

Experiment [6] concerns the target T4, Polyunsaturated fatty acid 5-lipoxygenase (Homo sapiens, UniProt P09917).
T4 sequence (P09917 whole entry): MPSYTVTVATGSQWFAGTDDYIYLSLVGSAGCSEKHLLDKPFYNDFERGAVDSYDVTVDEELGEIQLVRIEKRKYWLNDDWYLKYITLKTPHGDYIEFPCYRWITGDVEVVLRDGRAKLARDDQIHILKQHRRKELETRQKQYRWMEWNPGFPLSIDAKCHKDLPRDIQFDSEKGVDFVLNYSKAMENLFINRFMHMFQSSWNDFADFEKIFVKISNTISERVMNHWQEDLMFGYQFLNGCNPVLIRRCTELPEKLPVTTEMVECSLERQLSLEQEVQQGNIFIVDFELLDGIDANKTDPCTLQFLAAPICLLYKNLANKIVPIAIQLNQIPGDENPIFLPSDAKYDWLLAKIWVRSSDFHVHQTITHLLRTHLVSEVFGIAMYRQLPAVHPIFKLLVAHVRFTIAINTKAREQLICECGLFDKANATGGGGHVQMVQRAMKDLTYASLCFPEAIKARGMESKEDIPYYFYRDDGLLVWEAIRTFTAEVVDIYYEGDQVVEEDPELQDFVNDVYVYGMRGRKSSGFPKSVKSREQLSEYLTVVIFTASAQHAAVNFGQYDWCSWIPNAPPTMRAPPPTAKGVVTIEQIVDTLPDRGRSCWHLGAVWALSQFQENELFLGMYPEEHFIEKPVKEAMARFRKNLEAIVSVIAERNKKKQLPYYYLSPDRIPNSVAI
As to the kind of experiment: Inhibition of recombinant human 5-LO expressed in Escherichia coli BL21 incubated for 15 mins prior to prewarming for 30 secs followed by CaCl2+ and arachidonic acid addition and measured after 10 mins by RP-HPLC analysis.

As usually defined, the IC50 is the midpoint of a concentration-inhibition curve. `CC(C)Cc1ccc(C(C)c2nc3c(C(=O)O)cccc3n2Cc2ccccc2Cl)cc1` (centres undefined): the Activity in experiment [1] and in experiment [2] was 85% throughout. In addition, in experiment [3], the IC50 stood at 400 nM.
The inhibition is how much of the control response was suppressed. Regarding `CC(C)Cc1ccc(C(C)c2nc3cc(OCC(=O)O)ccc3n2Cc2ccccc2Cl)cc1` (centres undefined), the results for the Activity in experiment [1] and in experiment [2] were 67.3% and 6.38%, respectively. In addition, in experiment [3], the IC50 worked out at 180 nM. Moreover, in experiment [4], the inhibition is greater than 50%.
`CC(C)Cc1ccc(C(C)c2nc3cc(C(=O)O)ccc3n2Cc2ccccc2Cl)cc1` (centres undefined): the Activity stood at 71.1% in experiment [1] and 0% in experiment [2]. Besides, in experiment [3], the half-inhibitory concentration (IC50) worked out at 280 nM. Also, the inhibition in experiment [4] is greater than 50%.
With `CC(c1ccc(CC(C)(C)C)cc1)c1nc2cc(C#N)ccc2n1Cc1ccccc1Cl` (centres undefined), the Activity in experiment [1] is 117%; in experiment [2], 51.5%. The 50% inhibitory concentration (IC50) in experiment [3] stood at 1700 nM.
On to `C=C(Cc1ccc(-c2cnc(N)nc2)cc1)c1nc2cc(C#N)ccc2n1Cc1ccccc1Cl`, for which the IC50 in experiment [3] came to 370 nM.
Regarding `N#Cc1ccc2c(c1)nc(CCc1ccc(-c3ccc(N)nc3)cc1)n2Cc1ccccc1Cl`, the values for the Activity in experiment [1] and in experiment [2] were 76.1% and 1.4%, respectively. Also, in experiment [3], the IC50 amounted to 250 nM.
As to `N#Cc1ccc2c(c1)nc(NCc1ccc3cc[nH]c3c1)n2Cc1ccccc1Cl`, the figures for the Activity in experiment [1], in experiment [2] and in experiment [5] were 93.6%, 98.5% and 84%, respectively. In addition, the IC50 in experiment [3] was greater than 10000 nM.
In the case of `CC(C)Cc1ccc(C(C)c2nc3cc(-c4cccc(C(=O)O)c4)ccc3n2Cc2ccccc2Cl)cc1` (centres undefined), the Activity stood at 33% in experiment [1] and 0% in experiment [2]. For the same compound, in experiment [3], the half-inhibitory concentration (IC50) came to 74 nM. In addition, the inhibition in experiment [4] is greater than 50%.
With `CC(C)c1ccc2c(c1)c(SC(C)(C)C)c(CC(C)(C)C(=O)O)n2Cc1ccc(Cl)cc1`, in experiment [6], the IC50 stood at 3000 nM.
Consider `CC(C)Cc1ccc(C(C)c2nc3cc(CC(=O)O)ccc3n2Cc2ccccc2Cl)cc1` (centres undefined), for which the Activity stood at 91.4% in experiment [1] and 16.1% in experiment [2]. The half-inhibitory concentration (IC50) in experiment [3] amounted to 450 nM. Also, in experiment [4], the inhibition was greater than 50%.
Turning to `CCC(C)c1ccc(C(C)c2nc3cc(C#N)ccc3n2Cc2ccccc2Cl)cc1` (centres undefined), the results for the Activity in experiment [1] and in experiment [2] were 92.1% and 33.6%, respectively. Further, the IC50 in experiment [3] is 700 nM.
For `N#Cc1ccc2c(c1)nc(CCc1ccc(-c3cnc(N)cn3)cc1)n2Cc1ccccc1Cl`, in that order: 72.7%, 3.5% and 260 nM.
Turning to `CC(C)CCc1ccc(C(C)c2nc3cc(C#N)ccc3n2Cc2ccccc2Cl)cc1` (centres undefined), the Activity turned out to be 118% in experiment [1], 87.2% in experiment [2] and 66% in experiment [5]. For the same compound, the IC50 in experiment [3] is 18000 nM.
For `N#Cc1ccc2c(c1)nc(CCc1ccc(-c3ccc(N)nn3)cc1)n2Cc1ccccc1Cl`, the values for the Activity in experiment [1] and in experiment [2] were 85.6% and 25.6%, respectively. Besides, the IC50 in experiment [3] is 660 nM.
Turning to `CC(C)Cc1ccc(C(C)c2nc3cc(S(N)(=O)=O)ccc3n2Cc2ccccc2Cl)cc1` (centres undefined), the Activity in experiment [1] came out at 77.8%; in experiment [2], 16.8%. The concentration for half-maximal inhibition (IC50) in experiment [3] was found to be 280 nM. The inhibition in experiment [4] was greater than 50%.
The corresponding values for `CC(C)Cc1ccc(C(C)c2nc3cc(-c4nnn[nH]4)ccc3n2Cc2ccccc2Cl)cc1` (centres undefined) are 90.2%, 0%, 320 nM and greater than 50%.
The corresponding values for `CC(C)Cc1ccc(C(C)c2nc3cc(-c4ccccc4C(=O)O)ccc3n2Cc2ccccc2Cl)cc1` (centres undefined) are 104%, 65%, 1100 nM and greater than 50%.
`CC(C)Cc1ccc(C(C)c2nc3cc(C(N)=O)ccc3n2Cc2ccccc2Cl)cc1` (centres undefined): the Activity in experiment [1] came out at 64%; in experiment [2], 0%. Moreover, in experiment [3], the IC50 was found to be 130 nM.
For `CC(C)Cc1ccc(C(C)c2nc3cc(C#N)ccc3n2Cc2ccccc2Cl)cc1` (centres undefined), in experiment [4], the inhibition was greater than 50%.
With `CC(C)Cc1ccc(C(C)c2nc3c(CCC(=O)O)cccc3n2Cc2ccccc2Cl)cc1` (centres undefined), the Activity came to 85% in experiment [1] and 1% in experiment [2]. Further, the 50% inhibitory concentration (IC50) in experiment [3] worked out at 190 nM. In addition, the inhibition in experiment [4] was greater than 50%.
Take `CC(C)Cc1ccc(C(C)c2nc3cc(C(N)=S)ccc3n2Cc2ccccc2Cl)cc1` (centres undefined): the Activity in experiment [1] came to 63.1%; in experiment [2], 0.45%. Further, in experiment [3], the concentration for half-maximal inhibition (IC50) was 160 nM.
For `CC(C)Cc1ccc(C(C)c2nc3cc(-c4nc(C(=O)O)cs4)ccc3n2Cc2ccccc2Cl)cc1` (centres undefined), the Activity worked out at 72.7% in experiment [1] and 1.06% in experiment [2]. Further, in experiment [3], the 50% inhibitory concentration (IC50) turned out to be 150 nM. In addition, the inhibition in experiment [4] was greater than 50%.
For `CC(C)Cc1ccc(C(C)c2nc3cc(OC(C)(C)C(=O)O)ccc3n2Cc2ccccc2Cl)cc1` (centres undefined), in that order: 75.9%, 5.47%, 200 nM and greater than 50%.
For `N#Cc1ccc2c(c1)nc(CCc1ccc(-c3cnc(N)nc3)cc1)n2Cc1ccccc1Cl`, in that order: 85.5%, 8.3%, 370 nM and less than 50%.
The corresponding values for `CC(Cc1ccc(-c2cnc(N)nc2)cc1)c1nc2cc(C#N)ccc2n1Cc1ccccc1Cl` (centres undefined) are 84.1%, 4.2%, 420 nM and less than 50%.
As to `CC(C)Cc1ccc(C(C)c2nc3cc(-c4n[nH]c(=O)o4)ccc3n2Cc2ccccc2Cl)cc1` (centres undefined), the Activity in experiment [1] amounted to 40.5%; in experiment [2] it was 0.5%. In experiment [3], the IC50 was determined as 100 nM.
Consider `CC(C)Oc1ccc(-c2nc3cc(C#N)ccc3n2Cc2ccccc2Cl)cc1`, for which the Activity amounted to 93.7% in experiment [1] and 68.4% in experiment [2].
Regarding `N#Cc1ccc2c(c1)nc(NCCc1c[nH]c3ccccc13)n2Cc1ccccc1Cl`, the Activity stood at 97.1% in experiment [1], 99.2% in experiment [2] and 63% in experiment [5]. Also, in experiment [3], the IC50 is 8800 nM.
With `Cc1nc(-c2ccc3c(c2)nc(C(C)c2ccc(CC(C)C)cc2)n3Cc2ccccc2Cl)no1` (centres undefined), the results for the Activity in experiment [1] and in experiment [2] were 79% and 1.9%, respectively. Besides, the IC50 in experiment [3] is 180 nM.
`CC(C)Cc1ccc(C(C)c2nc3cc(-c4nnco4)ccc3n2Cc2ccccc2Cl)cc1` (centres undefined): the Activity was determined as 63.1% in experiment [1] and 0.45% in experiment [2]. In addition, the concentration for half-maximal inhibition (IC50) in experiment [3] was determined as 90 nM. Further, in experiment [4], the inhibition was less than 50%.
Turning to `N#Cc1ccc2c(c1)nc(NCc1ccc3[nH]ccc3c1)n2Cc1ccccc1Cl`, the Activity in experiment [1] was found to be 92.3%; in experiment [2] it was 84.7%; in experiment [5], 44%. Also, the half-maximal inhibitory concentration (IC50) in experiment [3] is 3800 nM.
With `CC(C)Cc1ccc(-c2nc3cc(C#N)ccc3n2Cc2ccccc2Cl)cc1`, the Activity in experiment [1] stood at 93%; in experiment [2] it was 74.3%.
Turning to `CC(C)Cc1ccc(C(C)c2nc3cc(-c4noc(=O)[nH]4)ccc3n2Cc2ccccc2Cl)cc1` (centres undefined), the Activity in experiment [1] was 87.6%; in experiment [2] it was 0.67%. For the same compound, in experiment [3], the IC50 is 270 nM. Also, the inhibition in experiment [4] is greater than 50%.

Values taken from ChEMBL document CHEMBL4229367, “Identification of multi-target inhibitors of leukotriene and prostaglandin E2 biosynthesis by structural tuning of the FLAP inhibitor BRP-7” (Eur J Med Chem, 2018).
